US20210299064A1, “METHOD OF TREATING PATIENTS WITH LENNOX-GASTAUT SYNDROME” (ZOGENIX INTERNATIONAL LIMITED, priority 2020, published 2021)
Where a name gives a salt, the structure may show the parent alone. Read-outs that look alike come from different tables or passages of the source.

Tests used:
[1] = system: child suffering pattern sensitivity-induced seizures; details: one child, resistant to anticonvulsive treatment; cited from earlier work
[2] = system: children with refractory epilepsy; details: 0.5 to 1 mg/kg/day; cited from earlier work
[3] = system: self-induced photosensitive seizures; details: four cases; cited from earlier work
[4] = system: children and adults with Lennox-Gastaut syndrome (LGS); assay: Same trial: safety (adverse events, ECG, ECHO); assay type: in vivo, human
[5] = system: children and adults with Lennox-Gastaut syndrome (LGS); assay: Randomized, double-blind, placebo-controlled trial of adjunctive fenfluramine oral solution: seizure frequency from caregiver diary; assay type: in vivo, human; details: for median reduction in monthly drop seizures: 2 week titration plus 12 week maintenance, placebo 7.8% (7.6% elsewhere in the source); for reduction from baseline of generalized tonic-clonic (GTC) seizures: placebo negative 3.7%, p less than 0.001; for reduction from baseline of tonic-atonic seizures: placebo 6.8%, p 0.0455; for proportion of subjects with a 25% or more reduction in monthly drop seizures: titration plus maintenance (week 0-14), placebo 31%, p 0.007
Procedure: A randomized, double-blind, placebo-controlled trial was conducted to assess the effect of administering fenfluramine hydrochloride as an adjunctive therapy as an oral solution to children and adults with Lennox-Gastaut syndrome (LGS). The study assessed the effect of such administration on seizures experienced by the subjects.
The fenfluramine hydrochloride was supplied as an oral solution in concentrations of 1.25, 2.5, and 5 mg/mL. Subjects were randomized to receive 1 of 2 doses of fenfluramine hydrochloride (0.2 mg/kg/day, 0.8 mg/kg/day; maximum dose: 30 mg/day) or placebo. Study medication were administered twice a day (BID) in equally divided doses. (Note that subjects taking concomitant stiripentol [STP] were randomized to 0.5 mg/kg/day, maximum dose 20 mg/day, or equivalent volume of placebo. Subjects randomized to 0.5 mg/kg/day were included in analyses with the subjects randomized to 0.8 mg/kg/day not taking STP.)
Seizures that result in a drop are defined as seizures involving the entire body, trunk, or head that led to a fall, injury, slumping in a chair, or the subject's head hitting a surface or that could have led to a fall or injury, depending on the patient's position at the time of the seizure.
The cohort included 263 randomized subjects from the United States, Canada, Europe, and Australia. 87 were randomized into 0.7 mg/kg/day of fenfluramine hydrochloride, 89 were randomized into 0.2 mg/kg/day of fenfluramine hydrochloride, and 87 were randomized into a placebo.
The administration was conducted for 20 weeks. There was a 4-week baseline, a 2-week titration, a 12-week maintenance, and a 2-week taper or transition period.
The 4-week Baseline Period consisted of the establishment of initial eligibility during a screening visit to include an assessment of cardiac parameters (ECG and ECHO), followed by an observation period where subjects were assessed for baseline seizure frequency based on recordings of daily seizure activity entered into a diary. Upon completion of the Baseline Period, subjects who qualified for the study were randomized (1:1:1) in a double-blind manner to receive 1 of 2 doses of fenfluramine hydrochloride (0.2 mg/kg/day, […]; maximum dose: 30 mg/day [or 0.5 mg/kg/day, maximum 20 mg/day, for subjects taking concomitant STP]) or placebo. Randomization was stratified by weight (<37.5 kilograms [kg], ≥37.5 kg) to ensure balance across treatment arms, and at least 25% of subjects will be in each weight group. All subjects were titrated to their blinded randomized dose over a 2-week Titration Period. Following titration, subjects continued treatment at their randomly assigned dose over a 12-week Maintenance Period. Total treatment time from the beginning of the Titration Period through the end of the Maintenance Period is 14 weeks. Subjects had ECG and ECHO assessments at weeks 6 and 14 during the Maintenance Period. At the end of the Maintenance Period (or early discontinuation), all subjects underwent a blinded 2-week taper or transition period (Post-Dosing Follow-Up) depending on whether they exit the study or are enrolled in Part 2, the long-term open-label extension, respectively.
(§1) Change in seizure frequency was assessed as the drops between baseline and the combined Titration and Maintenance Periods (T+M). Also assessed was the proportion of subjects who achieve a ≥50% reduction from baseline in the frequency of seizures that result in drops. Also assessed was changes in the Clinical Global Impression—Improvement rating, as assessed by the Principal Investigator.
Primary Efficacy Analysis: The primary efficacy endpoint for Part 1 is the percent change in frequency of seizures that result in drops (DSF: drop seizure frequency) per 28 days between the T+M and Baseline periods in Cohort A. The DSF will be calculated from all available data collected during the Baseline and treatment periods without imputation. […]

[6] = system: children and adults with Lennox-Gastaut syndrome (LGS); assay: Same trial: Clinical Global Impression-Improvement (CGI-I) rating by the Principal Investigator; assay type: in vivo, human; details: 0.7 mg/kg/day; placebo 6.3%; p 0.0007
Source text: The diagnosing can also involve a clinician's impression of symptoms. As used herein, the term “clinician” includes not only medical and psychological professions such as physicians, psychologists, psychiatrists, and nurses, but also non-professionals who observe the patient, such as a family member who resides with the patient. In some cases, the clinician is a medical or psychological professional. […] Instead, the “impression of symptoms” includes, for example, the clinician's subjective assessment of whether the overall condition of the patient has improved, worsened, or remained constant. In some cases the clinician's impression of symptoms is collected using a Clinical Global Impression (CGI) rating scale, which can include the section about severity of illness (CGI-S), global improvement (CGI-I), and efficacy index (CGI-E). […] By comparing the numerical responses over time, an assessment of the effect of the administering can be determined.
as §1, with “Investigator. […]” for “Investigator.”

LGS patients = details: cited from earlier work; for reduction in seizures associated with drops: 20 mg/kg/day
[7] = 0.7 mg/kg/day, listed as Fenfluramine

CCNC(C)Cc1cccc(C(F)(F)F)c1 (racemic) [fenfluramine, (RS)—N-ethyl-1-[3-(trifluoromethyl)phenyl]propan-2-amine]
effect on self-induced pattern sensitivity-induced seizures [1]: successfully terminated these self-induced seizures
effect on number of seizures [2]: reduction in the number of seizures
response of self-induced photosensitive seizures [3]: responded to treatment
subjects with at least one serious treatment emergent adverse event (SAE) ([4]; 0.7 mg/kg/day, placebo 4.6%): 11.7%
tolerability ([4]; both doses, 14 weeks of treatment): generally well tolerated
cases of valvular heart disease or pulmonary arterial hypertension ([4]; both doses, ECHO monitoring): No cases of valvular heart disease or pulmonary arterial hypertension were observed
median reduction in monthly drop seizures ([5]; 0.2 mg/kg/day, p 0.0915): 14.2%
reduction from baseline of generalized tonic-clonic (GTC) seizures ([5]; 0.2 mg/kg/day): 58.2%
reduction from baseline of generalized tonic-clonic (GTC) seizures ([5]; 0.2 mg/kg/day, listed as Fenfluramine): 58%
median reduction in monthly drop seizures ([5]; 0.7 mg/kg/day, p 0.0012): 26.5%
Hodges-Lehmann EMD (estimated median difference) from placebo in frequency of seizures associated with a drop ([5]; 0.7 mg/kg/day, p 0.0013): 19.9%
reduction from baseline of tonic-atonic seizures ([5]; 0.7 mg/kg/day): 46.7%
reduction from baseline of tonic-atonic seizures [5, 7]: 47%
reduction from baseline of tonic seizures ([5]; 0.7 mg/kg/day, placebo 13.3%, p 0.0601): 31.3%
reduction from baseline of generalized tonic-clonic (GTC) seizures ([5]; 0.7 mg/kg/day): 45.7%
reduction from baseline of generalized tonic-clonic (GTC) seizures [5, 7]: 46%
proportion of subjects with a 25% or more reduction in monthly drop seizures ([5]; 0.7 mg/kg/day): 51.7%
proportion of patients much or very much improved, CGI-I Investigator Rating [6]: 26.3%

O=C(c1cccnc1-c1ccncc1)N1CCC(O)(Cc2ccccc2)CC1 [Soticlestat]
reduction in drop seizures (LGS patients; Takeda Pharmaceuticals 2020, not statistically significant): 14.8%

C=C(C)[C@@H]1CCC(C)=C[C@H]1c1c(O)cc(CCCCC)cc1O [cannabidiol]
reduction in seizures associated with drops (LGS patients; Devinksy 2018, p 0.005): 21.6%
reduction in seizures associated with drops (LGS patients; Thiele 2018, p 0.0135): 17.2%

CCNC(C)Cc1cccc(C(F)(F)F)c1 (stereo not shown) [fenfluramine HCl, fenfluramine hydrochloride]
median reduction in monthly drop seizures ([5]; 0.2 mg/kg/day, p 0.0915): 13.2%
median reduction in monthly drop seizures ([5]; 0.7 mg/kg/day, p 0.0012): 26.5%
proportion of subjects with a 25% or more reduction in monthly drop seizures ([5]; 0.7 mg/kg/day): 51.7%
proportion of patients much or very much improved, CGI-I Investigator Rating [6]: 26.3%
